# Laboratory results from patent publication US20240035033A1, “PREVENTION AND TREATMENT OF AGE-RELATED MACULAR DEGENERATION THROUGH SUPPRESSION OF CATHEPSIN S EXPRESSION” (CHUNG-ANG UNIVERSITY INDUSTRY-ACADEMIC COOPERATION …, priority 2022, published 2024).
# Assays:
# Assay type in all cases: cell-based, human
# C3a and C5a = test: immunofluorescence analysis of C3a and C5a expression in RPE cells; details: siRNA 24 hours, Bay 1170-82 10 μM, control DMSO / control siRNA
# Procedure: In order to confirm the inhibitory effect of complement activity in the case of treatment with an inhibitor of cathepsin S expression or activity, RPE cells were treated with cathepsin S siRNA (CTSS siRNA, CTSSiRNA) and then the effect of inhibiting complement activity was analyzed. At this time, NF-κB inhibitor were treated as a comparison group. Specifically, RPE cells were treated with control siRNA or CTSS siRNA for 24 hours in the presence or absence of NF-κB inhibitor Bay 1170-82 (10 μM), respectively. After that, immunofluorescence analysis was performed for the expression of C3a and C5a in RPE cells. Experimental methods and conditions were applied in the same manner as in Example 3.
# cathepsin S (CTSS) [1] = test: immunofluorescence analysis of cathepsin S in RPE cells; details: H2O2 50 μM, 48 hours
# Procedure: Immunofluorescence analysis was performed to confirm the suppression of cathepsin S in cathepsin S knockdown RPE cells of Example 3-1. Specifically, after cells prepared in the same manner as in the mRNA expression level analysis were washed twice with sterile PBS and fixed with 4% paraformaldehyde at room temperature for 30 minutes, the fixation was stopped by washing the cells three times with PBS. The cells were permeabilized with PBS comprising 0.01% Triton X-100 […]. After blocking for 1 hour, the insert membrane was removed using a scalpel and placed on Parafilm prior to being incubated with a primary antibody (depending on the protein of interest). All primary antibodies were diluted 1:50 in 5% BSA and PBS and used, and cultured at 4° C. overnight. Thereafter, the cells were washed three times with PBS and a secondary FITC- or TRITC-conjugated antibody was diluted 1:50 and applied at room temperature for 1 hour. After 1 mg/ml DAPI was added 10 minutes before removing a secondary antibody to stain the nuclei, the cells were coated with a mounting medium and a glass coverslip was placed on top. The membrane/coverslip was fixed to the glass slide using a mounting medium, and cells were observed under a fluorescence microscope (Leica DFC7000T).
# HUVECs = test: tube formation of HUVECs treated with conditioned medium of RPE cells; details: conditioned medium of H2O2-treated control RPE cells, 2 hours
# From the text: (§1) In the case of treatment with an inhibitor of cathepsin S expression or activity, it was confirmed whether angiogenesis in RPE cells induced by oxidative stress was reduced. Specifically, the expression levels of PPARγ and VEGFA/AKT, which play key roles in neovascularization, differentiation, migration, and proliferation, were confirmed through western blotting experiments, and the experimental methods and conditions were applied in the same manner as in Example 2. In addition, to confirm the presence or absence of cell tube formation, HUVECs (1×10^5) were treated on a Matrigel-coated 96-well-plate with reduced growth factors, and then the cells were treated with a conditioned medium (CM) for 2 hours by treating RPE cells with CTSS siRNA and H2O2 at 37° C. for 48 hours, and images were analyzed with an inverted fluorescence microscope.
# PPARγ and VEGFA/AKT = test: western blot of angiogenic factors in RPE cells; details: RPE cells treated with H2O2
# From the text: as §1
# iNOS = iNOS expression in RPE cells according to H2O2 treatment (RT-PCR, western blot)
# Procedure: In addition, the expression level of iNOS expressed in RPE cells according to H2O2 treatment was analyzed. Specifically, after RPE cells were treated with 10 μM, 50 μM, and 100 μM H2O2, relative iNOS mRNA expression levels were confirmed, and western blot experiments were performed. Total RNA was prepared using a Ribospin™ II kit from GeneAll Biotechnology (Seoul, South Korea) according to the manufacturer's recommendations. Total RNA (1 μg) was reverse transcribed into first-strand cDNA using an iScript™ cDNA Synthesis kit (Bio-Rad Laboratories, Inc., California, USA) according to the manufacturer's instructions, real-time reverse transcription-polymerase chain reaction (RT-PCR) was performed using a Thermal Cycler CFX96™ Real-Time PCR System (Bio-Rad Laboratories, USA), and each experiment was repeated three times to derive the results. RPE cells were washed with ice-cold PBS and then extracted with a protein lysis buffer (Intron Biotechnology, Seoul, South Korea). Protein samples of cell lysates were mixed with an equal volume of 2×SDS sample buffer, denatured by heating for 5 minutes and then separated on a 10% SDS-PAGE gel. After electrophoresis, proteins were transferred to a polyvinylidene difluoride membrane, and the membrane was blocked and washed using 5% BSA for 40 minutes. […]
# cathepsin S (CTSS) [2] = test: cathepsin S expression in RPE cells under oxidative stress (mRNA, western blot)
# Procedure: To confirm the expression of cathepsin S (CTSS) in RPE cells under oxidative stress conditions, RPE cells were treated with H2O2 and the expression of cathepsin S (CTSS) was determined. Specifically, the cells was treated with 10 μM and 50 μM H2O2, cathepsin S mRNA expression level analysis and western blot experiments were performed in order to confirm the expression of cathepsin S, and the same experimental method and conditions as in Example 1 were applied, except that cathepsin S-specific antibodies were used.
# ARPE-19 cells = test: MTT viability of RPE cells according to H2O2 treatment; details: H2O2 6.25-100 μM, 48 hours, compared to the control
# Procedure: In order to confirm the decrease in viability of retinal pigment epithelium cells (RPE cells, hereinafter referred to as RPE cells) according to H2O2 treatment, MTT analysis was performed, and the viability and iNOS expression of RPE cells according to H2O2 treatment were confirmed.
# First, a human retinal-pigmented epithelial cell line (hereinafter referred to as ARPE-19 cells (ATCC, Manassas, VA, USA)) was used and inoculated into 96-well plates and cultured for 24 hours. Thereafter, the cells were treated with 6.25 μM 12.5 μM, 25 μM, 50 μM, and 100 μM H2O2 for 48 hours, a 3-(4,5-dimethylthiazol-2-yl)-2,5-diphenyl-tetrazolium bromide (MTT) solution was added to the medium, and the cells were cultured at 37° C. for 4 hours. The MTT-comprising medium was removed and the cells were lysed in 50 μl of DMSO. An optical density at 540 nm was confirmed using a microplate spectrophotometer (SpectraMax; Molecular Devices, Sunnyvale, CA, USA), and cell viability was determined by repeating each experiment three times to calculate an average value.
smiles,measurement,setting,value
Cc1ccc(S(=O)(=O)/C=C/C#N)cc1 [Bay 1170-82],expression of C3a (immunofluorescence),C3a and C5a,suppressed
same,expression of C5a (immunofluorescence),C3a and C5a,suppressed
OO [H2O2],cathepsin S expression (red fluorescence),cathepsin S (CTSS) [1],significantly increased
same,tube formation,HUVECs,marked increase in tube formation
same,expression level of PPARγ (western blot),PPARγ and VEGFA/AKT,increased
same,expression level of VEGFA/AKT (p-AKT) (western blot),PPARγ and VEGFA/AKT,increased
same,relative iNOS mRNA levels,"iNOS; RPE cells, 50 μM and 100 μM H2O2",increased
same,iNOS protein (western blot),"iNOS; RPE cells, 10, 50, 100 μM H2O2",increased in a H2O2 concentration-dependent manner
same,cathepsin S protein band (western blot),cathepsin S (CTSS) [2]; 10 μM and 50 μM H2O2,appeared thick and dark
same,relative mRNA level of cathepsin S,"cathepsin S (CTSS) [2]; 10 μM and 50 μM H2O2, vs control",higher than that of the control
same,cell viability (MTT),ARPE-19 cells,decrease in cell viability
